The values that follow come from patent US7713994B2 (Wyeth LLC, priority 2005, dated 2010).

Like-named read-outs stand apart in the source and are kept apart here.

One assay has as its target T1, cyclin D1/cdk 4 enzyme (Homo sapiens, UniProt P11802).
T1 construct: made in house; host or cells: Sf9 insect cells, recombinant baculovirus
Briefly: CDK4 ELISA kinase assay (phospho-Rb ser 795 detection). In kind it is biochemical. In a few lines:
(§1)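 Screening was done at 10 ug/ml compound. Each partially purified cyclin/CDK complex, produced in baculovirus-infected Sf9 cells, phosphorylated a coated GST-Rb C-terminal fragment with 200 μM ATP, and Ser795 phosphorylation was quantified by HRP-ELISA at 450 nm.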
(In general: In an ELISA, binding on a coated surface is turned into a signal by an enzyme label.)

The next assay concerns the target T2, cyclin E/CDK2 enzyme (Homo sapiens, UniProt P24941).
T2 construct: made in house; host or cells: Sf9 insect cells, recombinant baculovirus
Briefly: CDK2 ELISA kinase assay (phospho-Rb ser 795 detection). In kind it is biochemical. The protocol: • 1. High-binding ELISA microtiter plates (Costar) were coated with 40 μl of the kinase substrate (GST fusion of C-terminal fragment of the retinoblastoma susceptibility gene product) diluted to 10 μg/ml in tris-buffered saline (TBS), overnight at 4° C. • 2. Non-specific binding sites were blocked for 1 hour at 4° C. with Superblock in TBS (Pierce), and the plates rinsed with water. • 3. For the screen, 1.5 μl of test compound (200 μg/ml stock in 20% DMSO/20 mM HEPES, pH 7.5) was added to each well. Final dose of the test compound in the assay was 10 ug/ml. […] The kinase reaction (30 μl) was dispensed into each well. Reactions contained 200 μM ATP, 0.5 mg/ml bovine serum albumin (BSA; Sigma), and 0.5 μl partially purified cyclin D1/cdk 4 enzyme*. The enzyme complex is expressed in insect cells (Sf9) infected with recombinant baculovirus and partially purified using ammonium sulfate fractionation. Reaction volumes were adjusted to 30 μl with kinase assay buffer (50 mM HEPES, pH 7.5, 10 mM MgCl2, 5% glycerol, 10 mM 2-mercaptoethanol). • *: For CDK2 assay, 1.0 μl cyclin E/CDK2 enzyme (diluted 1:1000 in kinase assay buffer) was used. The enzyme is isolated from insect cells (Sf9) infected with recombinant baculovirus and partially purified using ammonium sulfate fractionation. For CDK1 assay, 0.08 μl cyclin B/CDK1 enzyme [New England BioLabs; the enzyme is isolated from insect cells (Sf9) infected with recombinant baculovirus carrying human cdc 2 and human cyclin B] was used.
[…] • 5. Plates were incubated at 30° C. for 1 hour. • 6. The reaction mixture was removed by aspiration and replaced with 250 μl TBS containing 0.1% Tween-20 and 5% nonfat dry milk (blocking buffer). The plates were incubated at 4° C. for 1 hour. • 7. The blocking buffer was removed and replaced with 50 μl of the primary antibody [anti-phospho-Rb ser 795 (New England BioLabs) diluted 1:1000 in blocking buffer]. Incubation was at 4° C. for 16-20 hours. • 8. The wells were rinsed 3 times with 250 μl of TBS containing 0.1% Tween-20 followed by the addition of 50 μl of secondary antibody [anti-rabbit IgG conjugated to horseradish peroxidase (Amersham Life Science) diluted 1:1000 in blocking buffer]. • 9. After a 1 hour incubation at room temperature, the wells were rinsed 3 times with 250 μl of TBS/0.1% Tween 20. • 10. TMB (3,3′,5,5′-tetramethylbenzidine dihydrochloride) substrate solution (100 μl; Pierce) was added to each well and the color development reaction allowed to proceed 5-10 minutes at room temperature with shaking. The reaction was stopped by the addition of 2N sulfuric acid (100 μl) and the absorbance values read at 450 nm in a microplate reader (Molecular Devices). Analysis of Results: • 1. The percentage of the absorbance value in wells containing the test compound relative to control wells (no test agent) was determined. • 2. IC50 values of selected compounds were determined from inhibition curves, after subtracting background values (no substrate).

A further assay has as its target T3, cyclin B/CDK1 enzyme (Homo sapiens, UniProt P06493).
T3 construct: purchased New England BioLabs; host or cells: Sf9 insect cells, recombinant baculovirus
Briefly: CDK1 ELISA kinase assay (phospho-Rb ser 795 detection). In kind it is biochemical. In a few lines:
as §1

The test system of another assay is BT474. In words: Cytotoxicity assay (SRB), BT474. In kind it is cell-based. In a few lines: (§2)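 Percentage survival is derived from SRB absorbance (540 nm) versus untreated cells. Exposures were 3 days, except 6 days for BT474, at 37 °C and 7% CO2.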
In a further assay the test system is LoVo. Briefly: Cytotoxicity assay (SRB), LoVo. In kind it is cell-based. The settings on record: Homo sapiens, LoVo, 72 h, LoVo cells, SRB, read-out: In Vitro Cellular Activity IC50 LOVO. In a few lines:
as §2

The test system of the next assay is HCT-116. In words: Cytotoxicity assay (SRB), HCT-116. In kind it is cell-based. The note with it: Homo sapiens, HCT-116, 72 h, HCT116 cells, 3 days, SRB; read-out: In Vitro Cellular Activity IC50 HCT116. The essentials:
as §2

The test system of a further assay is MCF-7. In words: Cytotoxicity assay (SRB), MCF-7. In kind it is cell-based. The settings on record: Homo sapiens, MCF7, 72 h, MCF-7 cells, 3 days, SRB; read-out: In Vitro Cellular Activity IC50 MCF-7. In a few lines:
as §2

Where [1] appears, read: In Vitro Enzyme Assays, 200 μM ATP, read-out: CDK4 IC50.
[2] abbreviates: In Vitro Enzyme Assays, read-out: CDK2 IC50.
Where [3] appears, read: In Vitro Enzyme Assays, read-out: CDK1 IC50.
[4] abbreviates: Homo sapiens, BT-474, 144 h, BT474 cells, SRB, 6 days; read-out: In Vitro Cellular Activity IC50 BT474.
Where [5] appears, read: In Vitro Enzyme Assay, cyclin D1/cdk 4, read-out: CDK4 IC50.
[6] abbreviates: In Vitro Enzyme Assay, cyclin E/CDK2, read-out: CDK2 IC50.
[7] abbreviates: In Vitro Enzyme Assay, cyclin B/CDK1, read-out: CDK1 IC50.
[8] abbreviates: Homo sapiens, BT-474, 144 h, BT474 cells, 6 days, SRB; read-out: In Vitro Cellular Activity IC50 BT474.
[9] abbreviates: In Vitro Enzyme Assay, read-out: CDK4 IC50.
The mark [10] stands for this setting: In Vitro Enzyme Assay, read-out: CDK2 IC50.
Setting [11] is: In Vitro Enzyme Assay, read-out: CDK1 IC50.

T3 sequence (P06493 whole entry): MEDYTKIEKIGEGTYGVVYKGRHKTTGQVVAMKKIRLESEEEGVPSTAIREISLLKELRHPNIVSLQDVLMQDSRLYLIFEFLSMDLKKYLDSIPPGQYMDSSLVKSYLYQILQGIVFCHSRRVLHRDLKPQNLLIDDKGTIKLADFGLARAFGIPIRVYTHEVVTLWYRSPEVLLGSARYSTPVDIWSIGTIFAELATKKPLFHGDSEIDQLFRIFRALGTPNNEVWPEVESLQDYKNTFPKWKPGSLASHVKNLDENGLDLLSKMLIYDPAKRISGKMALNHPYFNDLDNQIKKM
T3 sequence (P14635 whole entry partner): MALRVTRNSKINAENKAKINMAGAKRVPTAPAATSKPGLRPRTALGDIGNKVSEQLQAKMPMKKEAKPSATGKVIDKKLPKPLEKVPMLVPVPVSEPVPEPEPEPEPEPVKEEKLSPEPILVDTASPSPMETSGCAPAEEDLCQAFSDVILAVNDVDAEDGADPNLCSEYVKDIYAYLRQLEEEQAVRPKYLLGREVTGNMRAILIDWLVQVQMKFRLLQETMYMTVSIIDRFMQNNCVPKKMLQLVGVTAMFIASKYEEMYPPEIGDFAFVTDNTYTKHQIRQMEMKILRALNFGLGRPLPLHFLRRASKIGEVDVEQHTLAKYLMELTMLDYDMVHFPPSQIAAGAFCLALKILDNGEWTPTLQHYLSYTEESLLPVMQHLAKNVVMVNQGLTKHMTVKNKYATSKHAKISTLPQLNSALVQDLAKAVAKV
T1 sequence (P11802 whole entry, species assumed): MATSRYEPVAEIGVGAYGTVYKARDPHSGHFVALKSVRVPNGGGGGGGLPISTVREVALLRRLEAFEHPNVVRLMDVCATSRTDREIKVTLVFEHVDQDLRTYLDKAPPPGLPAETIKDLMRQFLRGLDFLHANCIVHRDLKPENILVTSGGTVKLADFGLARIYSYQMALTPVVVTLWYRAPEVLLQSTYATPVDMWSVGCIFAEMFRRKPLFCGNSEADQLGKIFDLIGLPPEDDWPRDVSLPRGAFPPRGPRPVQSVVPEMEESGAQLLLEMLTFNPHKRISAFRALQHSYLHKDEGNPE
T1 sequence (P24385 whole entry partner, species assumed): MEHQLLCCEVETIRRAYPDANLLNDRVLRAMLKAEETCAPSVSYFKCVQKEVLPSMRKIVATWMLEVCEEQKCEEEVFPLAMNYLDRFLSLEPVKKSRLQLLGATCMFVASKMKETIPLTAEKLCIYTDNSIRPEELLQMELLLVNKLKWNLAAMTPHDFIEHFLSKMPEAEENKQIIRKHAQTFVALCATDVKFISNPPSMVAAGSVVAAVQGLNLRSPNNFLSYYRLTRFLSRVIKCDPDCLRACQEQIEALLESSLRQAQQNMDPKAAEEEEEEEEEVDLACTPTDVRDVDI

A word on the IC50: it is the concentration that gives 50% inhibition. Turning to `O=C1NC(=O)c2ccc(Nc3ccccc3)cc2/C1=C/Nc1ccc(CN2CCCCC2)cc1` [Example 128, (4Z)-6-Anilino-4-({[4-(piperidin-1-ylmethyl)phenyl]amino}methylene)isoquinoline-1,3(2H,4H)-dione], the IC50 at cyclin D1/cdk 4 enzyme (setting [1]) is 1.8 µM; at cyclin E/CDK2 enzyme (setting [2]) it was over 50 µM; on cyclin B/CDK1 enzyme (setting [3]), over 50 µM; with BT474 (setting [4]), 3.1 µM; in the assay on LoVo (three days) it was 2.1 µM.

With `C[C@@H]1CN(c2ccc(N/C=C3\C(=O)NC(=O)c4ccc(I)cc43)cc2)C[C@H](C)N1C` [Example 234, (4Z)-6-Iodo-4-[({4-[(3R,5S)-3,4,5-trimethylpiperazin-1-yl]phenyl}amino)methylene]-isoquinoline-1,3(2H,4H)-dione], the IC50 at cyclin D1/cdk 4 enzyme (setting [1]) is 2.8 µM; at cyclin E/CDK2 enzyme (setting [2]), over 50 µM; on cyclin B/CDK1 enzyme (setting [3]), over 50 µM; in the assay with BT474 (setting [4]) it was 2.5 µM; with LoVo (three days) it was 3.4 µM.

On to `CC(=O)c1ccc(-c2ccc3c(c2)C(=CNCc2ccc(O)c(O)c2)C(=O)NC3=O)cc1` [Example 775, 6-(4-Acetyl-phenyl)-4-[(3,4-dihydroxy-benzylamino)-methylene]-4H-isoquinoline-1,3-dione], for which the half-inhibitory concentration (IC50) is 0.2 µM at cyclin D1/cdk 4 enzyme (setting [5]), 14.1 µM on cyclin E/CDK2 enzyme (setting [6]) and over 50 µM on cyclin B/CDK1 enzyme (setting [7]).

Turning to `O=C(O)C=Cc1ccc(-c2ccc3c(c2)C(=CNCc2ccc(O)c(O)c2)C(=O)NC3=O)cc1` [Example 788, 3-(4-{4-[(3,4-Dihydroxy-benzylamino)-methylene]-1,3-dioxo-1,2,3,4-tetrahydro-isoquinolin-6-yl}-phenyl)-acrylic acid], the IC50 at cyclin D1/cdk 4 enzyme (setting [5]) was found to be 0.2 µM; on cyclin E/CDK2 enzyme (setting [6]) it was 17.6 µM; at cyclin B/CDK1 enzyme (setting [7]), 17.6 µM.

For `O=C(O)C=Cc1cccc(-c2ccc3c(c2)C(=CNCc2ccc(O)c(O)c2)C(=O)NC3=O)c1` [Example 789, 3-(3-{4-[(3,4-Dihydroxy-benzylamino)-methylene]-1,3-dioxo-1,2,3,4-tetrahydro-isoquinolin-6-yl}-phenyl)-acrylic acid], the 50% inhibitory concentration (IC50) on cyclin D1/cdk 4 enzyme (setting [5]) was 0.4 µM; on cyclin E/CDK2 enzyme (setting [6]), 27.7 µM; at cyclin B/CDK1 enzyme (setting [7]), over 50 µM.

`O=C(O)CCc1ccc(-c2ccc3c(c2)C(=CNCc2ccc(O)c(O)c2)C(=O)NC3=O)cc1` [Example 819, 3-(4-{4-[(3,4-Dihydroxy-benzylamino)-methylene]-1,3-dioxo-1,2,3,4-tetrahydro-isoquinolin-6-yl}-phenyl)-propionic acid]: the IC50 turned out to be 0.81 µM at cyclin D1/cdk 4 enzyme (setting [5]), 27.1 µM at cyclin E/CDK2 enzyme (setting [6]) and 27.1 µM on cyclin B/CDK1 enzyme (setting [7]).

With `COc1ccc(NC=C2C(=O)NCc3cc(Br)ccc32)cc1` [Example 841, 7-Bromo-4-[(4-methoxy-phenylamino)-methylene]-1,4-dihydro-2H-isoquinolin-3-one], the IC50 at cyclin E/CDK2 enzyme (setting [6]) was 25.3 µM; at cyclin B/CDK1 enzyme (setting [7]), over 50 µM; in the assay on BT474 (setting [8]), 47.8 µM; in the assay on HCT-116, 36 µM; in the assay on LoVo (3 days) it was 34 µM.

Consider `CN1CCN(c2ccc(NC=C3C(=O)NCc4cc(Br)ccc43)cc2)CC1` [Example 842, 7-Bromo-4-{[4-(4-methyl-piperazin-1-yl)-phenylamino]-methylene}-1,4-dihydro-2H-isoquinolin-3-one], for which the 50% inhibitory concentration (IC50) at cyclin D1/cdk 4 enzyme (setting [5]) is 2.3 µM; on cyclin E/CDK2 enzyme (setting [6]), over 50 µM; at cyclin B/CDK1 enzyme (setting [7]), over 50 µM; in the assay with BT474 (setting [8]), 7.2 µM; with HCT-116 it was 4.5 µM; in the assay on LoVo (3 days), 5.7 µM.

For the compound `CN1CCN(c2ccc(NC=C3C(=O)NC(=O)c4ccc(-c5ccc6c(ccn6CC(N)=O)c5)cc43)cc2)CC1` [Example 851, 2-[5-(4-{[4-(4-Methyl-piperazin-1-yl)-phenylamino]-methylene}-1,3-dioxo-1,2,3,4-tetrahydro-isoquinolin-6-yl)-indol-1-yl]-acetamide], the IC50 came to 0.79 µM at cyclin D1/cdk 4 enzyme (setting [5]), 10.3 µM at cyclin E/CDK2 enzyme (setting [6]) and 2.7 µM at cyclin B/CDK1 enzyme (setting [7]).

Turning to `CN1CCN(c2ccc(NC=C3C(=O)NC(=O)c4ccc(-c5ccn(CC(N)=O)c5)cc43)cc2)CC1` [Example 853, 2-[3-(4-{[4-(4-Methyl-piperazin-1-yl)-phenylamino]-methylene}-1,3-dioxo-1,2,3,4-tetrahydro-isoquinolin-6-yl)-pyrrol-1-yl]-acetamide], the IC50 is 0.12 µM on cyclin D1/cdk 4 enzyme (setting [5]), over 50 µM on cyclin E/CDK2 enzyme (setting [6]) and over 50 µM on cyclin B/CDK1 enzyme (setting [7]).

For `CCN(CC)CCn1ccc(-c2ccc3c(c2)C(=CNc2ccc(N4CCN(C)CC4)cc2)C(=O)NC3=O)c1` [Example 854, 6-[1-(2-Diethylamino-ethyl)-1H-pyrrol-3-yl]-4-{[4-(4-methyl-piperazin-1-yl)-phenylamino]-methylene}-4H-isoquinoline-1,3-dione], the IC50 was 0.61 µM at cyclin D1/cdk 4 enzyme (setting [5]), over 50 µM on cyclin E/CDK2 enzyme (setting [6]) and over 50 µM on cyclin B/CDK1 enzyme (setting [7]).

In the case of `CONCCCc1ccc(N/C=C2\C(=O)NC(=O)c3ccc(Br)cc32)cc1` [Example 875, (4Z)-6-bromo-4-[({4-[3-(methoxyamino)propyl]phenyl}amino)methylene]isoquinoline-1,3(2H,4H)-dione], the IC50 was 1.9 µM on cyclin D1/cdk 4 enzyme (setting [9]); 2.8 µM at cyclin E/CDK2 enzyme (setting [10]); 15.1 µM on cyclin B/CDK1 enzyme (setting [11]); 9.5 µM with HCT-116; 12.5 µM in the assay on LoVo (3 days); 10.3 µM in the assay on MCF-7.

In the case of `CN(C)CCCN(C)c1ccc(N/C=C2\C(=O)NC(=O)c3ccc(Br)cc32)cc1` [Example 876, (4Z)-6-Bromo-4-[({4-[[3-(dimethylamino)propyl](methyl)amino]phenyl}amino)methylene]isoquinoline-1,3(2H,4H)-dione], the IC50 is 14.4 µM at cyclin D1/cdk 4 enzyme (setting [9]); over 50 µM on cyclin E/CDK2 enzyme (setting [10]); over 50 µM on cyclin B/CDK1 enzyme (setting [11]); 4.2 µM in the assay on HCT-116; 8.6 µM in the assay with LoVo (3 days); 5.3 µM with MCF-7.

As to “(4Z)-6-Bromo-4-{[(3-hydroxy-4-methoxybenzyl)amino)methylene}isoquinoline-1,3(2H,4H-dione [Example 50]”, the IC50 was 0.03 µM on cyclin D1/cdk 4 enzyme (setting [1]), over 50 µM at cyclin E/CDK2 enzyme (setting [2]) and over 50 µM at cyclin B/CDK1 enzyme (setting [3]).
